Measured values as given in patent publication US8217035B2, “Pyrimidine derivatives used as PI-3-kinase inhibitors” (Novartis AG, priority 2006, dated 2012).

Experiments:
[1] = tested on: A2780 ovarian cancer cells; experiment: Cellular proliferation in A2780 cells, Cell Titer Glo (Biological Method 4); format: cell-based; conditions: Homo sapiens; ovarian cancer cell line A2780
Summary of the method: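 A2780 cells seeded at 1,000/well in DMEM with 10% FBS, at least 2 h before compound, then exposed 72 h at 37 °C, 5% CO2. Viable cells measured by Cell Titer Glo luminescence; EC50 calculated from duplicate conditions.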

PI3 kinase alpha = PI3 kinase alpha (Homo sapiens, UniProt P42336); experiment: PI3K ATP depletion assay (Biological Method 1, Assay 3; KinaseGlo luminescence); format: biochemical; conditions: ATP depletion assay; read-out: PI3 Kinase Alpha, IC50
Summary of the method: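 Compound in DMSO was mixed with 10 nM PI3 kinase and 5 μg/mL phosphatidylinositol, and the reaction was started with 2 μM ATP. It ran to about 50% ATP depletion and was stopped with KinaseGlo.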

[2] = tested on: pSer473 Akt in A2780 cells; experiment: pSer473 Akt assay to monitor PI3K pathway in A2780 cells (Biological Method 2, MSD); format: cell-based; conditions: Homo sapiens; inhibition of Akt phosphorylation, A2780 cells
Description: In this method, an assay for measuring the PI3K-mediated pSer473-Akt status after treatment with representative inhibitor compounds of the invention is described.
A2780 cells were cultured in DMEM supplemented with 10% FBS. L-glutamine, sodium pyruvate, and antibiotics. Cells were plated in the same medium at a density of 15,000 cells per well into 96 well tissue culture plates, with outside wells vacant, and allowed to adhere overnight.
Test compounds supplied in DMSO were diluted further into DMSO at 500 times the desired final concentrations before dilution into culture media to 2 times the final concentrations. Equal volumes of 2× compounds were added to the cells in 96 well plates and incubated at 37° C. for one hour. The media and compounds were then removed, the plates chilled and cells lysed in a lysis buffer (150 mM NaCl, 20 mM Tris pH 7.5, 1 mM EDTA, 1 mM EGTA, 1% Triton X-100) supplemented with phosphatase and protease inhibitors. After thorough mixing, lysates were transferred to both pSer473Akt and total Akt assay plates from Meso Scale Discovery (MSD), and incubated overnight with shaking at 4° C.
The assays were read on a SECTOR Imager 6000 instrument (Meso Scale Discovery). Ratios of the signal from pSer473Akt and total Akt assays were used to correct for any variability and the percent inhibition of pSer473Akt from the total signal seen in cells treated with compound versus DMSO alone was calculated and used to determine EC50 values for each compound.

Chain of PI3 kinase alpha (P42336 whole entry): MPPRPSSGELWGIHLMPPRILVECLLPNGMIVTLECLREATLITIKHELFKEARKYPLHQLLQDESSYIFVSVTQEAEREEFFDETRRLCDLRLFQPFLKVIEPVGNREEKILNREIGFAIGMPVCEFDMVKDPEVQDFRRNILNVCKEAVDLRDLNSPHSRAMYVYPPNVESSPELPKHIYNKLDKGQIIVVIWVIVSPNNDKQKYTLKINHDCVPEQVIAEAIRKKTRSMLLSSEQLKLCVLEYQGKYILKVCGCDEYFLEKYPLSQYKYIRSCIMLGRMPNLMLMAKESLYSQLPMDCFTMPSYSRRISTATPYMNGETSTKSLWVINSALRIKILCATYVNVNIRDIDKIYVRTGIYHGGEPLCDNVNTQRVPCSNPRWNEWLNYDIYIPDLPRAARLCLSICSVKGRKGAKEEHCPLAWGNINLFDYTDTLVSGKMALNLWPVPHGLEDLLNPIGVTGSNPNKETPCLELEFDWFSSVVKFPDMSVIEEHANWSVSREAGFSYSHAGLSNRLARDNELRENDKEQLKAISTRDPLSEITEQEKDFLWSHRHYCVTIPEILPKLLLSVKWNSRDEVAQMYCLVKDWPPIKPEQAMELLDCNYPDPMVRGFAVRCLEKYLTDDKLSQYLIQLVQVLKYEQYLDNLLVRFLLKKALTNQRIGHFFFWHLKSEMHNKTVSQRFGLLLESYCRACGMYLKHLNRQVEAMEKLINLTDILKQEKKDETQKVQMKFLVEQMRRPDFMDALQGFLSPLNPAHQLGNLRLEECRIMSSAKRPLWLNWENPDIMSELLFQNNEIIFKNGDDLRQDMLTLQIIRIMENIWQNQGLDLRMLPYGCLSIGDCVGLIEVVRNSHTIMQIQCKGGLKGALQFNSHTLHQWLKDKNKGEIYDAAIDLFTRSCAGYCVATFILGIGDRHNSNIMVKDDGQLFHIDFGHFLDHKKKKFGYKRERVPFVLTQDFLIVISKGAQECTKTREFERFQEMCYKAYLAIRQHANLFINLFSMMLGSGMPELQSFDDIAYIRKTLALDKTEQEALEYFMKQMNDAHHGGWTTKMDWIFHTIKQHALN
Chain of PI3 kinase alpha (P27986 whole entry partner): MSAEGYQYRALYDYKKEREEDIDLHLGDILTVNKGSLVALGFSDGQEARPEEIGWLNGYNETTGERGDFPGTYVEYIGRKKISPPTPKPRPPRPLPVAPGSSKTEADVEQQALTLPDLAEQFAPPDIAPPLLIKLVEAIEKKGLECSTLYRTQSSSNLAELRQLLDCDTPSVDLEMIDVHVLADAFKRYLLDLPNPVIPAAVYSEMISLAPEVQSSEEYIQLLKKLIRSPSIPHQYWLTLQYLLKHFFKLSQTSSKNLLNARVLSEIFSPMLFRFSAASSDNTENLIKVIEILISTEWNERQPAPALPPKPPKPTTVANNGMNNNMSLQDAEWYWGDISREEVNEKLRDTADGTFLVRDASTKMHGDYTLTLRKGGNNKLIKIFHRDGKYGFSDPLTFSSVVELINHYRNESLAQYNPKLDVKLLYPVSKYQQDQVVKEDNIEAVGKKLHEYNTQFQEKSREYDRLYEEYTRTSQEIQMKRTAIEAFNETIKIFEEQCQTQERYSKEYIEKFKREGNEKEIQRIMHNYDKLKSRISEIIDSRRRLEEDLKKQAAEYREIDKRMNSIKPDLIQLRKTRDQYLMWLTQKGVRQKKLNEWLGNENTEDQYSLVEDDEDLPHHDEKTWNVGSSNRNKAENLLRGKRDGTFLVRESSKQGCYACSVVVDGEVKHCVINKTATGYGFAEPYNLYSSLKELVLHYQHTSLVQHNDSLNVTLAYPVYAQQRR

Row | Structure (SMILES) | EC50 [1] | IC50 (PI3 kinase alpha) | EC50 [2]
1 | CC(C)N1CCC(Oc2ccc(Nc3cc(-c4cnc(N)nc4C(F)(F)F)nc(N4CCOCC4)n3)cn2)CC1 [Compound 41] | < 1000 nM | < 1000 nM | < 1000 nM
2 | Cc1c(Nc2ccc(OC3CCN(C)CC3)nc2)nc(N2CCOCC2)nc1-c1cnc(N)nc1 [Compound 42] | < 1000 nM | < 1000 nM | < 1000 nM
3 | Nc1ncc(-c2cc(Nc3ccncc3C(F)(F)F)nc(N3CCOCC3)n2)cn1 [Compound 43] | < 1000 nM | < 1000 nM | < 1000 nM
4 | Nc1ncc(-c2cc(Nc3ccncc3)nc(N3CCOCC3)n2)cn1 [Compound 44] | < 1000 nM | < 1000 nM | < 1000 nM
5 | Nc1ncc(-c2cc(Nc3ccc4ncccc4c3)nc(N3CCOCC3)n2)cn1 [Compound 46] | < 1000 nM | < 1000 nM | < 1000 nM
6 | Nc1ncc(-c2cc(OC3CCN(C(=O)OC4CCCC4)CC3)nc(N3CCOCC3)n2)c(=O)[nH]1 [Compound 47] | < 1000 nM | < 1000 nM | < 1000 nM
7 | Nc1ncc(-c2cc(OC3CCN(C(=O)c4ccccc4)CC3)nc(N3CCOCC3)n2)c(=O)[nH]1 [Compound 48] | < 1000 nM | < 1000 nM | < 1000 nM
8 | CC(C)C(=O)N1CCC(Oc2cc(-c3cnc(N)[nH]c3=O)nc(N3CCOCC3)n2)CC1 [Compound 49] | < 1000 nM | < 1000 nM | < 1000 nM
9 | Nc1ncc(-c2cc(OC3CCOCC3)nc(N3CCOCC3)n2)c(=O)[nH]1 [Compound 50] | < 1000 nM | < 1000 nM | < 1000 nM
10 | CN1CCN(c2ccc(Nc3cc(-c4cnc(N)nc4)nc(N4CCOCC4)n3)cn2)CC1 [Compound 51] | < 1000 nM | < 1000 nM | < 1000 nM
11 | Cc1cc(Nc2cc(-c3cnc(N)nc3C(F)(F)F)nc(N3CCOCC3)n2)ccn1 [Compound 52] | < 1000 nM | < 1000 nM | < 1000 nM
12 | Cc1cc(Nc2cc(-c3cnc(N)nc3N)nc(N3CCOCC3)n2)ccn1 [Compound 53] | < 1000 nM | < 1000 nM | < 1000 nM
13 | COc1cccc2ncc(Nc3cc(-c4cnc(N)nc4C(F)(F)F)nc(N4CCOCC4)n3)cc12 [Compound 54] | < 1000 nM | < 1000 nM | < 1000 nM
14 | Nc1ncc(-c2cc(O[C@@H]3CCOC3)nc(N3CCOCC3)n2)c(=O)[nH]1 [Compound 56] | < 1000 nM | < 1000 nM | < 1000 nM
15 | COc1cncc(-c2cc(-c3cnc(N)nc3)nc(N3CCOCC3)n2)c1 [Compound 57] | < 1000 nM | < 1000 nM | < 1000 nM
16 | CS(=O)(=O)N1CCC(Oc2cc(-c3cnc(N)[nH]c3=O)nc(N3CCOCC3)n2)CC1 [Compound 58] | < 1000 nM | < 1000 nM | < 1000 nM
17 | CCN(CC)Cc1cnc(Nc2cc(-c3cnc(N)nc3N)nc(N3CCOCC3)n2)s1 [Compound 59] | < 1000 nM | < 1000 nM | < 1000 nM
18 | COc1ccc2cc(Nc3cc(-c4cnc(N)nc4)nc(N4CCOCC4)n3)cnc2c1 [Compound 60] | < 1000 nM | < 1000 nM | < 1000 nM
19 | CN1CCC(Oc2ccc(Nc3cc(-c4cnc(N)nc4C(F)(F)F)nc(N4CCOCC4)n3)cn2)CC1 [Compound 62] | < 1000 nM | < 1000 nM | < 1000 nM
20 | COC(=O)N1CCC[C@@H](Oc2cc(-c3cnc(N)nc3N)nc(N3CCOCC3)n2)C1 [Compound 63] | < 1000 nM | < 1000 nM | < 1000 nM

Row | Structure (SMILES) | EC50 [1] | IC50 (PI3 kinase alpha) | EC50 [2]
21 | Nc1ncc(-c2cc(Nc3ccc(Oc4cccnc4)nc3)nc(N3CCOCC3)n2)cn1 [Compound 64] | < 1000 nM | < 1000 nM | < 1000 nM
22 | Nc1ncc(-c2cc(N3CCOc4ccccc43)nc(N3CCOCC3)n2)cn1 [Compound 65] | < 1000 nM | < 1000 nM | < 1000 nM
23 | Nc1ncc(-c2cc(Nc3ccc4c(c3)OCCO4)nc(N3CCOCC3)n2)cn1 [Compound 67] | < 1000 nM | < 1000 nM | < 1000 nM
24 | CC(C)N1CCC(Oc2ccc(Nc3cc(-c4cnc(N)nc4N)nc(N4CCOCC4)n3)cn2)CC1 [Compound 68] | < 1000 nM | < 1000 nM | < 1000 nM
25 | CS(=O)(=O)Nc1ncccc1-c1cc(-c2cnc(N)nc2C(F)(F)F)nc(N2CCOCC2)n1 [Compound 69] | < 1000 nM | < 1000 nM | < 1000 nM
26 | COC(=O)N1CCC(Oc2cc(-c3cnc(N)nc3C(F)(F)F)nc(N3CCOCC3)n2)CC1 [Compound 70] | < 1000 nM | < 1000 nM | < 1000 nM
27 | Cc1c(Nc2ncc(C#N)s2)nc(N2CCOCC2)nc1-c1cnc(N)nc1 [Compound 71] | < 1000 nM | < 1000 nM | < 1000 nM
28 | CC(C)C(=O)N1CCC[C@H](Oc2cc(-c3cnc(N)nc3N)nc(N3CCOCC3)n2)C1 [Compound 72] | < 10000 nM | < 1000 nM | < 1000 nM
29 | COc1ccc(Nc2cc(-c3cnc(N)nc3N)nc(N3CCOCC3)n2)cn1 [Compound 73] | < 10000 nM | < 1000 nM | < 1000 nM
30 | CS(=O)(=O)N1CCC(Oc2cc(-c3cnc(N)nc3C(F)(F)F)nc(N3CCOCC3)n2)CC1 [Compound 74] | < 1000 nM | < 1000 nM | < 1000 nM
31 | COC(=O)N1CCC[C@H](Oc2cc(-c3cnc(N)nc3N)nc(N3CCOCC3)n2)C1 [Compound 75] | < 10000 nM | < 1000 nM | < 1000 nM
32 | CS(=O)(=O)c1ccc(Nc2cc(-c3cnc(N)nc3C(F)(F)F)nc(N3CCOCC3)n2)cn1 [Compound 78] | < 1000 nM | < 1000 nM | < 1000 nM
33 | CC(C)N1CCC(Oc2cncc(-c3cc(-c4cnc(N)cc4C(F)(F)F)nc(N4CCOCC4)n3)c2)CC1 [Compound 79] | < 10000 nM | < 1000 nM | < 1000 nM
34 | COC(=O)N1CCC(Oc2cc(-c3cnc(N)nc3N)nc(N3CCOCC3)n2)CC1 [Compound 81] | < 1000 nM | < 1000 nM | < 1000 nM
35 | Nc1ccc(-c2cc(Nc3ccc4ncccc4c3)nc(N3CCOCC3)n2)cn1 [Compound 82] | < 1000 nM | < 1000 nM | < 1000 nM
36 | Nc1cc(C(F)(F)F)c(-c2cc(OC3CCN(C(=O)c4ccccc4)CC3)nc(N3CCOCC3)n2)cn1 [Compound 83] | < 10000 nM | < 1000 nM | < 1000 nM
37 | CC(C)N1CC[C@@H](Oc2ccc(Nc3cc(-c4cnc(N)cc4C(F)(F)F)nc(N4CCOCC4)n3)cn2)C1 [Compound 86] | < 1000 nM | < 1000 nM | < 1000 nM
38 | Nc1ncc(-c2cc(Nc3ccccc3F)nc(N3CCOCC3)n2)cn1 [Compound 87] | < 10000 nM | < 1000 nM | < 1000 nM
39 | Nc1cc(C(F)(F)F)c(-c2cc(-c3cncc(OC4CCNCC4)c3)nc(N3CCOCC3)n2)cn1 [Compound 88] | < 10000 nM | < 1000 nM | < 1000 nM
40 | CS(=O)(=O)c1cc(Nc2cc(-c3cnc(N)cc3C(F)(F)F)nc(N3CCOCC3)n2)ccn1 [Compound 90] | < 1000 nM | < 1000 nM | < 1000 nM
